Measurements published in US10160753B2, “Indazole compounds as IRAK4 inhibitors” (Aurigene Discovery Technologies Limited, priority 2014, dated 2018).

Biological target: T1, recombinant IRAK-4 kinase (Homo sapiens, UniProt Q9NWZ3)
T1 construct: purchased Millipore, USA
T1 sequence (Q9NWZ3 1-460): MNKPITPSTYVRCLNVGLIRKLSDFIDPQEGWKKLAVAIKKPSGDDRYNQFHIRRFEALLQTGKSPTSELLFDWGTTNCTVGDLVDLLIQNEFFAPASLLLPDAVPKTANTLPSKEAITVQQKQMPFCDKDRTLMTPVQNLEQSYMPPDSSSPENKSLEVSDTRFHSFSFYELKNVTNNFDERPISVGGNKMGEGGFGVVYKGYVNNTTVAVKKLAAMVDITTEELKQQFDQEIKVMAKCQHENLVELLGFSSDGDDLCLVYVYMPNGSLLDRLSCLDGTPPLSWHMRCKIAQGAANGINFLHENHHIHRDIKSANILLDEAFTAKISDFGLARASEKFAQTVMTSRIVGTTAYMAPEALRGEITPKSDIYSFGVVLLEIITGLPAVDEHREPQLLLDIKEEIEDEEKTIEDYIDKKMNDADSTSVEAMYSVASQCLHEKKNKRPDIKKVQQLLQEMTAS
Assay: IRAK-4 Biochemical Assay (TR-FRET)
Conditions: 30 min pre-incubation, 100 nM Biotin Histone H3, 20 μM ATP, read-out: IC50 values for IRAK4 activity
Description: Compounds were tested for their potential to inhibit IRAK-4 enzyme in a TR-FRET assay using recombinant IRAK-4 kinase from Millipore, USA. The assay buffer was 50 mM Tris-HCl pH 7.5, 20 mM MgCl2, 1 mM EGTA, 2 mM DTT, 3 mM MnCl2 and 0.01% Tween 20.5 ng of IRAK-4 kinase was used for the assay. After pre-incubation of enzyme with test compound for 30 minutes at room temperature, a substrate mixture containing 100 nM Biotin Histone H3 (Millipore, USA) and 20 μM ATP (Sigma, USA) was added and the reaction was incubated for 30 min. Post incubation, the reaction was stopped by the addition of stop mix containing 40 mM EDTA, 1 nM of Europium-Anti-Phospho-Histone H3 (Ser10) antibody (Perkin Elmer, USA) and 20 nM SureLight Allophycocyanin-Streptavidin (Perkin Elmer, USA). The fluorescence emission at 615 nm and 665 nm were measured at an excitation of 340 nm and the percent inhibition was estimated from the ratio of the fluorescence intensities [(F665/F615)×10000]. The compounds were initially screened at 1 μM and 10 μM concentrations and potent compounds (>50% inhibition at 1 μM) were taken for dose response studies. The IC50 values were estimated by fitting the dose-response data to sigmoidal dose response (variable slope), curve fitting program using Graphpad Prism software Version 6.01.

Row | SMILES | IC50 [nM]
1 | Cn1ncc2cc(NC(=O)c3coc(N4CC[C@H](O)C4)n3)c(C3CC3)cc21 [Example 50, (S)—N-(6-cyclopropyl-1-methyl-1H-indazol-5-yl)-2-(3-hydroxypyrrolidin-1-yl)oxazole-4-carboxamide] | > 100
2 | Cn1ncc2cc(NC(=O)c3coc(N4CC[C@H](N)C4)n3)c(C3CC3)cc21 [Example 51, (S)-2-(3-aminopyrrolidin-1-yl)-N-(6-cyclopropyl-1-methyl-1H-indazol-5-yl)oxazole-4-carboxamide] | > 100
3 | Cn1cc2cc(NC(=O)c3coc(N4CC[C@H](O)C4)n3)c(N3CCCCC3)cc2n1 [Example 52, (S)-2-(3-hydroxypyrrolidin-1-yl)-N-(2-methyl-6-(piperidin-1-yl)-2H-indazol-5-yl)oxazole-4-carboxamide] | < 50
4 | C[C@H](O)Cn1cc(-c2nc(C(=O)Nc3cc4cnn(C)c4cc3C3CC3)co2)cn1 [Example 53, (S)—N-(6-cyclopropyl-1-methyl-1H-indazol-5-yl)-2-(1-(2-hydroxypropyl)-1H-pyrazol-4-yl)oxazole-4-carboxamide] | > 100
5 | Cn1cc2cc(NC(=O)c3coc(N4CC[C@H](N)C4)n3)c(C3CC3)cc2n1 [Example 54, (S)-2-(3-aminopyrrolidin-1-yl)-N-(6-cyclopropyl-2-methyl-2H-indazol-5-yl)oxazole-4-carboxamide] | > 100
6 | Cn1cc2cc(NC(=O)c3coc(N4CC[C@H](O)C4)n3)c(C3CC3)cc2n1 [Example 55, (S)—N-(6-cyclopropyl-2-methyl-2H-indazol-5-yl)-2-(3-hydroxypyrrolidin-1-yl)oxazole-4-carboxamide] | 50 to 100
7 | CC(O)CNc1cccc(C(=O)Nc2cc3cn(C)nc3cc2N2CCCCC2)n1 (centres unmarked) [Example 57, 6-((2-hydroxypropyl)amino)-N-(2-methyl-6-(piperidin-1-yl)-2H-indazol-5-yl)picolinamide] | < 50
8 | Cc1cc(-c2nc(C(=O)Nc3cc4cn(C)nc4cc3N3CCC(O)CC3)co2)ccn1 [Example 58, N-(6-(4-hydroxypiperidin-1-yl)-2-methyl-2H-indazol-5-yl)-2-(2-methylpyridin-4-yl)oxazole-4-carboxamide] | < 50
9 | Cc1cc(-c2nc(C(=O)Nc3cc4cnn(C)c4cc3N3CCC3)co2)ccn1 [Example 59, N-(6-(azetidin-1-yl)-1-methyl-1H-indazol-5-yl)-2-(2-methylpyridin-4-yl)oxazole-4-carboxamide] | > 100
10 | Cc1cc(-c2nc(C(=O)Nc3cc4cn(C)nc4cc3N3CCC3)co2)ccn1 [Example 60, N-(6-(azetidin-1-yl)-2-methyl-2H-indazol-5-yl)-2-(2-methylpyridin-4-yl)oxazole-4-carboxamide] | < 50
11 | Cc1cc(-c2nc(C(=O)Nc3cc4cn(C)nc4cc3N3CC(O)C3)co2)ccn1 [Example 61, N-(6-(3-hydroxyazetidin-1-yl)-2-methyl-2H-indazol-5-yl)-2-(2-methylpyridin-4-yl)oxazole-4-carboxamide] | < 50
12 | Cc1cc(-c2nc(C(=O)Nc3cc4cnn(C)c4cc3N3CCCC3)co2)ccn1 [Example 62, N-(1-methyl-6-(pyrrolidin-1-yl)-1H-indazol-5-yl)-2-(2-methylpyridin-4-yl)oxazole-4-carboxamide] | < 50
13 | Cc1cc(-c2nc(C(=O)Nc3cc4cn(C)nc4cc3N3CCCC3)co2)ccn1 [Example 63, N-(2-methyl-6-(pyrrolidin-1-yl)-2H-indazol-5-yl)-2-(2-methylpyridin-4-yl)oxazole-4-carboxamide] | < 50
14 | Cc1cc(-c2nc(C(=O)Nc3cc4cn(C)nc4cc3N3CC[C@H](O)C3)co2)ccn1 [Example 64, (S)—N-(6-(3-hydroxypyrrolidin-1-yl)-2-methyl-2H-indazol-5-yl)-2-(2-methylpyridin-4-yl)oxazole-4-carboxamide] | < 50
15 | Cc1cc(-c2nc(C(=O)Nc3cc4cn(C)nc4cc3N3CC[C@@H](O)C3)co2)ccn1 [Example 65, (R)—N-(6-(3-hydroxypyrrolidin-1-yl)-2-methyl-2H-indazol-5-yl)-2-(2-methylpyridin-4-yl)oxazole-4-carboxamide] | < 50
16 | Cc1cc(-c2ccc(C(=O)Nc3cc4cn(C)nc4cc3N3CCCCC3)o2)ccn1 [Example 66, N-(2-methyl-6-(piperidin-1-yl)-2H-indazol-5-yl)-5-(2-methylpyridin-4-yl)furan-2-carboxamide] | < 50
17 | Cc1cc(-c2ccc(C(=O)Nc3cc4cn(C)nc4cc3N3CCC(O)CC3)o2)ccn1 [Example 67, N-(6-(4-hydroxypiperidin-1-yl)-2-methyl-2H-indazol-5-yl)-5-(2-methylpyridin-4-yl)furan-2-carboxamide] | < 50
18 | Cc1cc(-c2nc(C(=O)Nc3cc4cn(C)nc4cc3N3CCCC(O)C3)co2)ccn1 (centres unmarked) [Example 68, N-(6-(3-hydroxypiperidin-1-yl)-2-methyl-2H-indazol-5-yl)-2-(2-methylpyridin-4-yl)oxazole-4-carboxamide] | < 50
19 | Cc1cc(-c2ccc(C(=O)Nc3cc4cn(C)nc4cc3N3CCC[C@@H](O)C3)o2)ccn1 [Example 69, (R)—N-(6-(3-hydroxypiperidin-1-yl)-2-methyl-2H-indazol-5-yl)-5-(2-methylpyridin-4-yl)furan-2-carboxamide] | < 50
20 | Cc1cc(-c2ccc(C(=O)Nc3cc4cn(C)nc4cc3N3CCCC(O)C3)o2)ccn1 (centres unmarked) [Example 70, N-(6-(3-hydroxypiperidin-1-yl)-2-methyl-2H-indazol-5-yl)-5-(2-methylpyridin-4-yl)furan-2-carboxamide] | < 50
21 | Cc1cc(-c2nc(C(=O)Nc3cc4cn(C)nc4cc3N3CCCCCC3)co2)ccn1 [Example 71, N-(6-(azepan-1-yl)-2-methyl-2H-indazol-5-yl)-2-(2-methylpyridin-4-yl)oxazole-4-carboxamide] | < 50
22 | Cc1cc(-c2nc(C(=O)Nc3cc4cnn(C)c4cc3N3CCCCCC3)co2)ccn1 [Example 72, N-(6-(azepan-1-yl)-1-methyl-1H-indazol-5-yl)-2-(2-methylpyridin-4-yl)oxazole-4-carboxamide] | < 50
23 | Cc1cc(-c2nc(C(=O)Nc3cc4c(C)n(C)nc4cc3N3CCCCC3)co2)ccn1 [Example 73, N-(2,3-dimethyl-6-(piperidin-1-yl)-2H-indazol-5-yl)-2-(2-methylpyridin-4-yl)oxazole-4-carboxamide] | < 50
24 | Cc1cc(-c2nc(C(=O)Nc3cc4c(C)nn(C)c4cc3N3CCCCC3)co2)ccn1 [Example 74, N-(1,3-dimethyl-6-(piperidin-1-yl)-1H-indazol-5-yl)-2-(2-methylpyridin-4-yl)oxazole-4-carboxamide] | < 50
25 | COCCn1ncc2cc(NC(=O)c3coc(-c4ccnc(C)c4)n3)c(N3CCC(O)CC3)cc21 [Example 75, N-(6-(4-hydroxypiperidin-1-yl)-1-(2-methoxyethyl)-1H-indazol-5-yl)-2-(2-methylpyridin-4-yl)oxazole-4-carboxamide] | < 50
26 | COCCn1cc2cc(NC(=O)c3coc(-c4ccnc(C)c4)n3)c(N3CCC(O)CC3)cc2n1 [Example 76, N-(6-(4-hydroxypiperidin-1-yl)-2-(2-methoxyethyl)-2H-indazol-5-yl)-2-(2-methylpyridin-4-yl)oxazole-4-carboxamide] | < 50
